This note sets out measurements from PMC5291098, “Molecular mutagenesis of ppGpp: turning a RelA activator into an inhibitor” (Scientific Reports, 2017).

The structures appear in SMILES notation. “Also recorded” adds a separate entry of the source. Read-outs that look alike come from different tables or passages of the source.

Format in all cases: biochemical
Assay [1] addresses T1, E. coli RelA (Escherichia coli, UniProt P0AG20).
T1 construct: made in house
The experiment in a line: Inhibition of [3H]GDP to [3H]ppGpp conversion by E. coli RelA activated by vacant 70S ribosomes and 100 μM ppGpp. To be noted: for IC50: 30 nM RelA, 0.5 μM vacant 70S, 100 μM ppGpp; for nHill (Hill coefficient of the titration fit): Supplementary Table 1, 4-parameter logistic model. How it is done:
For the initial characterization of compounds, we followed the inhibition of [^3H] GDP conversion to [^3H] ppGpp catalyzed by E. coli RelA in a simplified system in which RelA’s activity was induced by vacant 70S ribosomes and 100 μM of ppGpp[15]. Unlabeled ppGpp was added to reaction mixtures in order to linearize the kinetics of [^3H] ppGpp synthesis due to an activating effect on the RelA enzyme. We used a targeted library of 69 nucleotides belonging to several structural classes: ‘true’ ppGpp analogues; Relacin and its derivatives; pyrrolidine, azetidine, piperidine and acyclic phosphonates. Chemical structures of tested compounds and titrations in the RelA:70S:ppGpp system are presented in Supplementary Table 1.
(§1) Detailed description of experimental procedures can be found in Supplementary Text. Biochemical assays utilize in vitro translation[58] and stringent response[15] systems from E. coli purified components. Experiments were performed in HEPES:Polymix[58] buffer with either 5 (for enzymatically assembled initiation complexes) or 15 mM (for vacant 70 S, as well as non-enzymatically assembled programmed ribosomes) Mg^2+. Expression and purification of E. faecalis RelQ was performed as per Gaca (2015) and colleagues. GTPase and ppGpp synthesis were followed using TLC separation and radiochemical detection of ^3H-labelled nucleotides. Multiple round in vitro transcription assays were performed as per Bernardo et al.[49] with minor modifications. Inhibition efficiency (IC50) was calculated using 4-parameter logistic model (Hill equation) as per Sebaugh[60].
(§2) Thin layer chromatography (TLC) analysis of nucleotide mixtures
(§3) Both EF-G GTPase reaction and ppGpp synthesis by RelA were followed by TLC analysis followed by scintillation counting according to Mechold and colleagues, with modifications1. Time points from the reaction mixtures (5 μl, see below for details) were quenched by addition 4 μl 70% formic acid supplemented with a cold nucleotide standard used for UV-shadowing (10 mM GDP and 10 mM GTP) and spotted on PEI-TLC plates (Macherey-Nagel). TLC was run in buffer, plates dried, cut into sections guided by UV-shadowing and 3H radioactivity was quantified by scintillation counting in Optisafe-3 (Fisher) scintillation cocktail on Perkin Elmer Tricarb 2810TR counter. Conversion of substrate to product was quantified as described in Shyp et al. (2012)2.
Enzymatic assays with E. coli RelA
Screening: all experiments were performed in HEPES:Polymix, Mg2+ of 5 mM, 37 […]
μM ppGpp was pre-incubated at 37° C for 2 min and then reaction started by addition of 1 mM ATP, time points (5 μl) taken, quenched with formic acid and analyzed by TLC. Inhibition efficiency (IC50) was calculated using 4-parameter logistic model (Hill equation) as per Sebaugh (2011)3. […]

Assay [2] concerns the target E. faecalis SAS RelQ (RelQEf) (Enterococcus faecalis, UniProt Q830U9). The experiment in a line: Inhibition of E. faecalis SAS RelQ ppGpp synthesis. To be noted: for Effect on RelQEf activity (in words): concentrations up to 1 mM.
Description: In E. coli, ppGpp is synthesized by the multi-domain RSHs RelA and SpoT, however, numerous single-domain RSHs – Small Alarmone Synthetases (SAS) – are widely distributed across bacterial taxa[3]. […] Therefore we tested the effects of DR-4250, DR-M014 and DR-5163 on RelQEf activity (Supplementary Figure 2).
as §1
RelQ activity0.4 RelQ activity0.4 RelQ activity0.4
Supplementary Figure 2 | Inhibition of E. faecalis SAS RelQ by DR-4250, DR-
M014 and DR-5163 is inefficient. The reaction mixture contains 0.25 µM RelQEf,
300 µM [3H] GDP, 0.5 mg/ml BSA, 100 µM ppGpp, 1 mM ATP in Hepes:Polymix at […]

Assay [3] has as its system T2, E. coli EF-G.
T2 construct: made in house
To be noted: up to 1 mM. How it is done:
as §2
as §3, with “(2012)2. […]” for “(2012)2.”
GTPase assays with E. coli EF-G
The reaction mixture contained 0.5 μM 70S, 0.1 μM EF-G, in HEPES:Polymix (25 mM Hepes 7.5/ 1 mM DTT / 5 mM Mg2+) pre-incubated for 2 minutes at 37°C prior to addition of 300 μM [3H]GTP substrate (Hartman), after which time points (5 μl) taken, quenched with formic acid and analyzed by TLC (see above). […]

Setting [4] is: 0.3 mM [3H]GDP, 1 mM ATP, read-out: IC50.
[5] abbreviates: 5 mM Mg2+, 37 °C, no unit beside the value, titration axis in mM, read-out: IC50 (Supplementary Table 1, example titration).

Sequence of E. faecalis SAS RelQ (RelQEf) (Q830U9 entry or part of it): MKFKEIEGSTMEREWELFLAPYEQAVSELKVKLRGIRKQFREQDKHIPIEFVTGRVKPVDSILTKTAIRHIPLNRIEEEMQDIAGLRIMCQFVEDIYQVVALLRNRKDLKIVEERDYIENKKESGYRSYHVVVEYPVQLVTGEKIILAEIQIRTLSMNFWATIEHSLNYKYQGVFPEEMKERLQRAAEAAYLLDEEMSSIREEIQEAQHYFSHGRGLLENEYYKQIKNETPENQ
T1 sequence (P0AG20 whole entry): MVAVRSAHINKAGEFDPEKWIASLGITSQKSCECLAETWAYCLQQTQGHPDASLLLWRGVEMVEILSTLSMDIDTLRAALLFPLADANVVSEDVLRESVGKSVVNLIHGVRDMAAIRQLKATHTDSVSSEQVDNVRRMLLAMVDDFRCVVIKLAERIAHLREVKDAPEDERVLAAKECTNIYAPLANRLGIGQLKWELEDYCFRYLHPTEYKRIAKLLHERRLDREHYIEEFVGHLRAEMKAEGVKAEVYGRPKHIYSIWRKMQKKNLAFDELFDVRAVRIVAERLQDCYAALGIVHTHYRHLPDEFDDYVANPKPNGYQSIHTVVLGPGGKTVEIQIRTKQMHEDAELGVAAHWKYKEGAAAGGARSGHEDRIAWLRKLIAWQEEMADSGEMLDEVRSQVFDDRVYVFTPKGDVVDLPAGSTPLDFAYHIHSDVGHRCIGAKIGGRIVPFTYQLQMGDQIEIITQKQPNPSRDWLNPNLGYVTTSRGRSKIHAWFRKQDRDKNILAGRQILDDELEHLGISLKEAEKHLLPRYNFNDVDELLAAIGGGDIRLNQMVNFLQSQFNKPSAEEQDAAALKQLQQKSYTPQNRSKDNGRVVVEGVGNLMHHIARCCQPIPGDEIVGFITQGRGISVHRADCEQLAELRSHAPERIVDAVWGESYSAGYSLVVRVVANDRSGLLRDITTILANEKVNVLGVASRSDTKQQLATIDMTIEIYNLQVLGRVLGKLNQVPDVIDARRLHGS

Regarding `Nc1nc2c(ncn2C2OC(COP(=O)(O)OCP(=O)(O)O)C(OP(=O)(O)OCP(=O)(O)O)C2O)c(=O)[nH]1` (centres unmarked) [DR-4250, Guanosine 3’,5’-di(phosphonomethoxyphosphate)], the IC50 stood at 0.054 ± 0.003 mM in assay [1] (setting [4]); 0.053 ± 0.003 mM in assay [1] (setting [5]); 235 ± 19 µM in assay [2] (0.25 µM RelQEf, 300 µM [3H]GDP, 100 µM ppGpp, 1 mM ATP, 37°C). Further, the “nHill (Hill coefficient of the titration fit)” value in assay [1] stood at 2.74 ± 0.5. In addition, the “Effect on RelQEf activity (in words)” value in assay [2] is listed as “inefficient”. Further, the “Inhibitory effect on EF-G GTPase activity (in words)” value in assay [3] is “no inhibitory effect”.
For `Nc1nc2c(ncn2C2CCN(C(=O)P(=O)(O)O)CC2)c(=O)[nH]1` [DR-M014], the IC50 in assay [1] (setting [4]) was found to be 0.121 ± 0.02 mM; in assay [1] (setting [5]), 0.12 ± 0.02 mM. Further, the “nHill (Hill coefficient of the titration fit)” value in assay [1] is reported as 1.9 ± 0.5. In assay [2], the “Effect on RelQEf activity (in words)” value is “inefficient; also recorded: almost inactive”. Also, the “Inhibitory effect on EF-G GTPase activity (in words)” value in assay [3] was “no inhibitory effect”.
